Columns and labels:
[1] = test system: HCC-PDX model LIM1025 (code 002); assay: Sorafenib antitumor activity in HCC HuPrime PDX model LIM1025; format: in vivo, Balb/c nude mice; conditions: 50 mg/kg p.o. qd × 14, P value <0.001
Excerpt: (§1) Patient tumor samples and engraftment in immunocompromised mice. […] (<10).
(§2) Evaluation of antitumor activity.

[2] = test system: HCC-PDX model LIM752 (code 003); assay: Sorafenib antitumor activity in HCC HuPrime PDX model LIM752; format: in vivo, Balb/c nude mice; conditions: 50 mg/kg p.o. qd × 14, P value <0.001
Excerpt: as §1, §2

[3] = test system: HCC-PDX model LIM1081 (code 004); assay: Sorafenib antitumor activity in HCC HuPrime PDX model LIM1081; format: in vivo, Balb/c nude mice; conditions: 50 mg/kg p.o. qd × 13, P value 0.015
Excerpt: as §1, §2

[4] = test system: HCC-PDX model LIM1098 (code 005); assay: Sorafenib antitumor activity in HCC HuPrime PDX model LIM1098; format: in vivo, Balb/c nude mice; conditions: 50 mg/kg qd × 14 p.o., P value 0.008
Excerpt: as §1, §2

[5] = test system: HCC-PDX model LIM612 (code 006); assay: Sorafenib antitumor activity in HCC HuPrime PDX model LIM612; format: in vivo, Balb/c nude mice; conditions: 50 mg/kg p.o. Qd × 22, P value 0.001
Excerpt: as §1, §2

[6] = test system: HCC-PDX model LIM1035 (code 007); assay: Sorafenib antitumor activity in HCC HuPrime PDX model LIM1035; format: in vivo, Balb/c nude mice; conditions: 50 mg/kg p.o. qd × 14, P value 0.005
Excerpt: as §1, §2

[7] = test system: HCC-PDX model LIM1005 (code 008); assay: Sorafenib antitumor activity in HCC HuPrime PDX model LIM1005; format: in vivo, Balb/c nude mice; conditions: 50 mg/kg p.o. qd × 14, P value 0.015
Excerpt: as §1, §2

[8] = test system: HCC-PDX model LIM574 (code 009); assay: Sorafenib antitumor activity in HCC HuPrime PDX model LIM574; format: in vivo, Balb/c nude mice; conditions: 50 mg/kg p.o. qd × 14, P value 0.002
Excerpt: as §1, §2

[9] = test system: HCC-PDX model LIM941 (code 010); assay: Sorafenib antitumor activity in HCC HuPrime PDX model LIM941; format: in vivo, Balb/c nude mice; conditions: 50 mg/kg p.o. 5 days on/2 days off, P value <0.001
Excerpt: as §1, §2

[10] = test system: HCC-PDX model LIM1074 (code 011); assay: Sorafenib antitumor activity in HCC HuPrime PDX model LIM1074; format: in vivo, Balb/c nude mice; conditions: 50 mg/kg p.o. qd × 13, P value 0.032
Excerpt: as §1, §2

[11] = test system: HCC-PDX model LIM801 (code 012); conditions: 50 mg/kg p.o. 5 days on/2 days off, P value 0.001
Excerpt: (§3) We were interested in identifying models that would respond or not respond to Sorafenib. To this end, we tested a cohort of randomly selected 21 HCC HuPrime by treating them with Sorafenib.
(§4) Patient tumor samples and engraftment in immunocompromised mice. Freshly and surgically removed tumor tissues were obtained from the patients diagnosed as HCC through collaboration with the Beijing Keluoen Translational Medicine Institute and Hebei Medical University Fourth Hospital with approval by the Institutional Review Boards of Hebei Medical University Fourth Hospital and the informed consents from patients. The engraftments of patient tumor fragments into immunocompromised mice subcutaneously have been broadly described by others. Briefly, the tumors were sliced into 3×3×3 mm3 fragments and inoculated subcutaneously on the flank of mice (Balb/c nude, 6-8 wks old, female, Beijing HFK Bioscience Co. Ltd., Beijing, China). The tumor growth was monitored twice weekly by using a caliper. The established tumor models from these patient samples, called passage 0 or P0, were serially re-engrafted to maintain tumors, these subsequent passages were called P1, 2, 3 . . . (<10). […]

[12] = test system: HCC-PDX model LIM1054 (code 013); assay: Sorafenib antitumor activity in HCC HuPrime PDX model LIM1054; format: in vivo, Balb/c nude mice; conditions: 50 mg/kg p.o. qd × 14, P value 0.045
Excerpt: as §1, §2

[13] = test system: HCC-PDX model LIM1097 (code 014); assay: Sorafenib antitumor activity in HCC HuPrime PDX model LIM1097; format: in vivo, Balb/c nude mice; conditions: 50 mg/kg p.o. qd × 14, P value 0.046
Excerpt: as §1, §2

[14] = test system: HCC-PDX model LIM1057 (code 015); assay: Sorafenib antitumor activity in HCC HuPrime PDX model LIM1057; format: in vivo, Balb/c nude mice; conditions: p.o. 50 mg/kg, qd × 14, P value 0.003
Excerpt: as §1, §2

[15] = test system: HCC-PDX model LIM1068 (code 016); assay: Sorafenib antitumor activity in HCC HuPrime PDX model LIM1068; format: in vivo, Balb/c nude mice; conditions: 50 mg/kg p.o. qd × 13, P value 0.024
Excerpt: as §1, §2

[16] = test system: HCC-PDX model LIF1069 (code 017); assay: Sorafenib antitumor activity in HCC HuPrime PDX model LIF1069; format: in vivo, Balb/c nude mice; conditions: 50 mg/kg p.o. qd × 14, P value 0.024
Excerpt: as §1, §2

[17] = test system: HCC-PDX model LIM1078 (code 018); assay: Sorafenib antitumor activity in HCC HuPrime PDX model LIM1078; format: in vivo, Balb/c nude mice; conditions: 50 mg/kg p.o. qd × 13, P value 0.055
Excerpt: as §1, §2

[18] = test system: HCC-PDX model LIM1088 (code 019); assay: Sorafenib antitumor activity in HCC HuPrime PDX model LIM1088; format: in vivo, Balb/c nude mice; conditions: 50 mg/kg p.o. qd × 13, P value 0.182
Excerpt: as §1, §2

[19] = test system: HCC-PDX model LIMsh050 (code 020); assay: Sorafenib antitumor activity in HCC HuPrime PDX model LIMsh050; format: in vivo, Balb/c nude mice
Excerpt: as §3, §4

[20] = test system: HCC-PDX model LIM334 (code 021); assay: Sorafenib antitumor activity in HCC HuPrime PDX model LIM334; format: in vivo, Balb/c nude mice
Excerpt: as §1, §2

[21] = test system: cohort of 21 hepatocellular carcinoma (HCC) patient derived xenografts (PDXs); assay: Clinical trial-like study of Sorafenib in a cohort of 21 HCC HuPrime PDXs; format: in vivo, Balb/c nude mice; conditions: 13 out of 21 PDXs; daily oral Sorafenib 50 mg/kg
Excerpt: as §1, §2
Patient derived xenografts (PDXs) are considered experimental models mimicking patient tumors, or “patient avatars”. We performed a clinical-like trial (phase II-like) using a cohort of 21 hepatocellular carcinoma (HCC) patient derived xenografts (PDXs), also called patient avatar trial, for testing their response to multi-kinase inhibitor Sorafenib. […] Gene expression profiles of these PDXs were analyzed to reveal the mRNA expression signatures that may be predictive of the response to Sorafenib. This signature can be potentially used to develop companion diagnostics to stratify patent treatment, or individualized treatment.

[22] = test system: advanced hepatocellular carcinoma (HCC); conditions: background statement; cited from earlier work

CNC(=O)c1cc(Oc2ccc(NC(=O)Nc3ccc(Cl)c(C(F)(F)F)c3)cc2)ccn1 [Sorafenib]
ΔT/ΔC (day14-day15) [1]: 0.01 | ΔT/ΔC (day14-day15) [2]: 0.10 | ΔT/ΔC (day14-day15) [3]: 0.14 | ΔT/ΔC (day14-day15) [4]: 0.14 | ΔT/ΔC (day14-day15) [5]: 0.15 | ΔT/ΔC (day14-day15) [6]: 0.16 | ΔT/ΔC (day14-day15) [7]: 0.21 | ΔT/ΔC (day14-day15) [8]: 0.21 | ΔT/ΔC (day14-day15) [9]: 0.23 | ΔT/ΔC (day14-day15) [10]: 0.35 | ΔT/ΔC (day14-day15) [11]: 0.37 | ΔT/ΔC (day14-day15) [12]: 0.38 | ΔT/ΔC (day14-day15) [13]: 0.41 | ΔT/ΔC (day14-day15) [14]: 0.43 | ΔT/ΔC (day14-day15) [15]: 0.47 | ΔT/ΔC (day14-day15) [16]: 0.47 | ΔT/ΔC (day14-day15) [17]: 0.48 | ΔT/ΔC (day14-day15) [18]: 0.54 | model response to Sorafenib (in words) ([19]; model L10050, daily oral 50 mg/kg): quite or partially resistant | ΔT/ΔC (day14-day15) ([19]; model LIMsh050, 50 mg/kg p.o. qd × 14, P value 0.134): 0.78 | model response to Sorafenib (in words) ([20]; model L10334, daily oral 50 mg/kg): quite or partially resistant | ΔT/ΔC (day14-day15) ([20]; model LIM334, 50 mg/kg p.o. 5 days on/2 days off, P value 0.659): 1.13 | PDXs that achieved effective tumor growth inhibition with % ΔT/ΔC<40% (p<0.05) [21]: 62% | increase survival for HCC patients [22]: 3 months

Source: patent US11136625B2, “Gene expression signatures predictive of subject response to a multi-kinase inhibitor and methods of using the same” (Crown Bioscience, Inc. (Taicang), priority 2013, dated 2021)
